Measurements taken from US20230257396A1, “MACROCYCLES AND THEIR USE” (BLOSSOMHILL THERAPEUTICS, INC., priority 2020, published 2023).

What was measured:
Test in all cases: KINOMEscan kinase binding assay (Eurofins/DiscoveRx), % Ctrl
Conditions in all cases: 1 μM
kinases [1] = target: T1, kinases (Homo sapiens, UniProt P00519, Q252H)
T1 construct: purchased Eurofins/DiscoveRx; host or cells: E. coli BL21-derived host (T7 phage display) for most kinases; HEK-293 for the rest
Outline: (§1)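 Competition binding: DNA- or phage-tagged kinases (T7 phage in E. coli BL21, or HEK-293-expressed) with immobilized biotinylated ligand beads and test compound, 1 h at room temperature. Bead-bound kinase eluted and quantified by qPCR; % Ctrl = (compound − positive control)/(negative control − positive control) ×100 at a single compound concentration.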

kinases [2] = target: T2, kinases (Homo sapiens, UniProt P10721, T670I/V559D)
T2 construct: purchased Eurofins/DiscoveRx; host or cells: E. coli BL21-derived host (T7 phage display) for most kinases; HEK-293 for the rest
T2 sequence (P10721 26-976 V559D/T670I): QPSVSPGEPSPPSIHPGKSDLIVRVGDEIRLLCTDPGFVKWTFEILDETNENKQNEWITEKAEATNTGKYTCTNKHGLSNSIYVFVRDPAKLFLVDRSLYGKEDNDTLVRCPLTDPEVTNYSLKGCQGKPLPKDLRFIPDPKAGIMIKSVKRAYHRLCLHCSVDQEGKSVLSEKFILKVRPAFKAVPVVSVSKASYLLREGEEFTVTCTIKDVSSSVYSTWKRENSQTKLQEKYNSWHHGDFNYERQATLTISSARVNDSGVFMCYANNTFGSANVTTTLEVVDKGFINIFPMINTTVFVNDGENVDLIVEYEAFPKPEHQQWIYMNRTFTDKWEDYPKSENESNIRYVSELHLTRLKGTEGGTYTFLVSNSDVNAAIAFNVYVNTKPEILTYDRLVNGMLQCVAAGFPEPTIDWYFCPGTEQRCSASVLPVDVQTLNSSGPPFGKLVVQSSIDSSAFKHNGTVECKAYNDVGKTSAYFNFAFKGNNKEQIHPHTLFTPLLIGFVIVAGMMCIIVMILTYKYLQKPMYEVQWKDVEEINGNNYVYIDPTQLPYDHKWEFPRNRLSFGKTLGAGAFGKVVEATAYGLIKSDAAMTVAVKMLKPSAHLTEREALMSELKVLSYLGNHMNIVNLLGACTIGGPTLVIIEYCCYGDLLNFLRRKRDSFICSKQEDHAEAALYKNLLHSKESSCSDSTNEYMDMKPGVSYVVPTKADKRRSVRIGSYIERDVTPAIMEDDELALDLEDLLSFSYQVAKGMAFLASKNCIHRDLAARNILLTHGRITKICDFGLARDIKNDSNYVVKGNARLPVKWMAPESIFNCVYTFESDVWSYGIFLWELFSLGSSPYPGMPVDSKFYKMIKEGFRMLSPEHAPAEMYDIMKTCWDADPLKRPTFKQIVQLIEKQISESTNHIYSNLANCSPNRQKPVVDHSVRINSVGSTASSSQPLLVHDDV
Outline: as §1

kinases [3] = target: T3, kinases (Homo sapiens, UniProt P00533)
T3 construct: purchased Eurofins/DiscoveRx; host or cells: E. coli BL21-derived host (T7 phage display) for most kinases; HEK-293 for the rest
Outline: as §1

kinases [4] = target: T4, kinases (Homo sapiens, UniProt P00533, DEL746-750)
T4 construct: purchased Eurofins/DiscoveRx; host or cells: E. coli BL21-derived host (T7 phage display) for most kinases; HEK-293 for the rest
Outline: as §1

kinases [5] = target: T5, kinases (Homo sapiens, UniProt P07949, V804M)
T5 construct: purchased Eurofins/DiscoveRx; host or cells: E. coli BL21-derived host (T7 phage display) for most kinases; HEK-293 for the rest
T5 sequence (P07949 29-1114 V804M): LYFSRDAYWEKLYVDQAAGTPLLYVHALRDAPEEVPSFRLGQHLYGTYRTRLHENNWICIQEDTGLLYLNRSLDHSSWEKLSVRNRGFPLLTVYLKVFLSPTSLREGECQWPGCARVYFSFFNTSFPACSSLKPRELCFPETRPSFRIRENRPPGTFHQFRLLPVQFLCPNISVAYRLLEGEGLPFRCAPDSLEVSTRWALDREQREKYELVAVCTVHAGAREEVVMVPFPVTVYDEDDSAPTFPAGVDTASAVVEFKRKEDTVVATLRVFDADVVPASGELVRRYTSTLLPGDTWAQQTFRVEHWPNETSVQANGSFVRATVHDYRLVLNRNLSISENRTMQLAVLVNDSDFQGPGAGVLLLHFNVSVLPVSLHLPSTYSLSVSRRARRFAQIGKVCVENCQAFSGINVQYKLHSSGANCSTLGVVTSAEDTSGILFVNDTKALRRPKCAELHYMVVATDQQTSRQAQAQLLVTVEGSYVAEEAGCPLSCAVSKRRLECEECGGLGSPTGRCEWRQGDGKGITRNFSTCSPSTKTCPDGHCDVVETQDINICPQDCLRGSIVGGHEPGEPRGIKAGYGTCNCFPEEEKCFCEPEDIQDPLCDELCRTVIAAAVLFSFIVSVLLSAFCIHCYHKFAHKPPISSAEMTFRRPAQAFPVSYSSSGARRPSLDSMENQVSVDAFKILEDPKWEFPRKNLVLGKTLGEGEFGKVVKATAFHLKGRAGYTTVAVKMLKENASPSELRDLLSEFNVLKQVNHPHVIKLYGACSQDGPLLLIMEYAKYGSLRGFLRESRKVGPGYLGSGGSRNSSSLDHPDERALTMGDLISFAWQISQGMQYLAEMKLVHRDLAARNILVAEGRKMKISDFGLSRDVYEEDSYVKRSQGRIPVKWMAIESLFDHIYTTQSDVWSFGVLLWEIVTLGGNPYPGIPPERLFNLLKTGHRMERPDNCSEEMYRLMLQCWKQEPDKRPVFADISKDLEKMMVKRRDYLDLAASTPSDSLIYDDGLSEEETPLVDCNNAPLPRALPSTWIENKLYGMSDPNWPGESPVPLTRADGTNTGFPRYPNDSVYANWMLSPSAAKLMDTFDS
Outline: as §1

kinases [6] = system: kinases
Outline: as §1

kinases [7] = target: T6, kinases (Homo sapiens, UniProt P00519, M351T)
T6 construct: purchased Eurofins/DiscoveRx; host or cells: E. coli BL21-derived host (T7 phage display) for most kinases; HEK-293 for the rest
Outline: as §1

kinases [8] = target: T7, kinases (Homo sapiens, UniProt P36888, D835V)
T7 construct: purchased Eurofins/DiscoveRx; host or cells: E. coli BL21-derived host (T7 phage display) for most kinases; HEK-293 for the rest
T7 sequence (P36888 27-993 D835V): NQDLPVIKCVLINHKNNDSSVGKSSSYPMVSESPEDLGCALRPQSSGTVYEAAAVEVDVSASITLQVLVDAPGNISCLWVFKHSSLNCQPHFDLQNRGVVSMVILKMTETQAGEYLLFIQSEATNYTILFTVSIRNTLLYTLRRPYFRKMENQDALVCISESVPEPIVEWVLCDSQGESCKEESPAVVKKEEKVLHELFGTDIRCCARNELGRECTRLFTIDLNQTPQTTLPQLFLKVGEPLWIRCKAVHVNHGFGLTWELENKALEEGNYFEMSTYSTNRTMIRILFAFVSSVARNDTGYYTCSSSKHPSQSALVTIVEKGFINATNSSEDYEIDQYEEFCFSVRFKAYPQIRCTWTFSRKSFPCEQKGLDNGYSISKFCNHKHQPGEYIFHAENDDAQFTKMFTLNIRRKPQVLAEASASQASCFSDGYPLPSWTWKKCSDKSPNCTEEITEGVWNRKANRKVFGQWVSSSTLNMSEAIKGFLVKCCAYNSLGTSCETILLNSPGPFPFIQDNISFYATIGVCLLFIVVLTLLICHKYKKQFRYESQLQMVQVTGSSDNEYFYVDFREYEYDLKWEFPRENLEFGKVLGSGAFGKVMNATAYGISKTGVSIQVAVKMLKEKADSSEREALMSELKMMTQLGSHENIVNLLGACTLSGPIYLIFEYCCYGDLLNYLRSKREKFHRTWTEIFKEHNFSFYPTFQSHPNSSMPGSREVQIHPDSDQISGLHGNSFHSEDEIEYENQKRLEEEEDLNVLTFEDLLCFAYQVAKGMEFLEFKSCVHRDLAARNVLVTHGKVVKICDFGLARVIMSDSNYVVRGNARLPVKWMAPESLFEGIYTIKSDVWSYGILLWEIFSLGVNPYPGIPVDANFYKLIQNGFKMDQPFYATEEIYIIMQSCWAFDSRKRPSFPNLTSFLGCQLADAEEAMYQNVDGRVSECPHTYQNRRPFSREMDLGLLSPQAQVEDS
Outline: as §1

kinases [9] = target: T8, kinases (Homo sapiens, UniProt P10721, A829P)
T8 construct: purchased Eurofins/DiscoveRx; host or cells: E. coli BL21-derived host (T7 phage display) for most kinases; HEK-293 for the rest
T8 sequence (P10721 26-976 A829P): as the sequence (P10721 26-976 V559D/T670I) above, with D534V, I645T, A804P counted along it
Outline: as §1

kinases [10] = target: T9, kinases (Homo sapiens, UniProt P10721, V559D/V654A)
T9 construct: purchased Eurofins/DiscoveRx; host or cells: E. coli BL21-derived host (T7 phage display) for most kinases; HEK-293 for the rest
T9 sequence (P10721 26-976 V559D/V654A): as the sequence (P10721 26-976 V559D/T670I) above, with V629A, I645T counted along it
Outline: as §1

Structure (SMILES)	% Ctrl, ABL1(Q252H)-nonphosphorylated (kinases [1]; ABL1(Q252H)-nonphosphorylated)	% Ctrl, ABL1(Q252H)-phosphorylated (kinases [1]; ABL1(Q252H)-phosphorylated)	% Ctrl, KIT(V559D, T670I) (kinases [2]; KIT(V559D, T670I))	% Ctrl, EGFR (kinases [3]; EGFR)	% Ctrl, EGFR(E746-A750del) (kinases [4]; EGFR(E746-A750del))	% Ctrl, RET(V804M) (kinases [5]; RET(V804M))	% Ctrl, EGFR(L747-E749del, A750P) (kinases [6]; EGFR(L747-E749del, A750P))	% Ctrl, EGFR(L747-S752del, P753S) (kinases [6]; EGFR(L747-S752del, P753S))	% Ctrl, EGFR(L747-T751del, Sins) (kinases [6]; EGFR(L747-T751del, Sins))	% Ctrl, FLT3(ITD) (kinases [6]; FLT3(ITD))	% Ctrl, FLT3(ITD, D835V) (kinases [6]; FLT3(ITD, D835V))	% Ctrl, FLT3(ITD, F691L) (kinases [6]; FLT3(ITD, F691L))	% Ctrl, ABL1(M351T)-phosphorylated (kinases [7]; ABL1(M351T)-phosphorylated)	% Ctrl, FLT3(D835V) (kinases [8]; FLT3(D835V))	% Ctrl, KIT(A829P) (kinases [9]; KIT(A829P))	% Ctrl, KIT(V559D, V654A) (kinases [10]; KIT(V559D, V654A))	other results
Cc1cc2c([nH]1)/C=C1\C(=O)Nc3ccc(cc31)OCCOCCN(C)C2=O [Ex.91, [16a(17)Z]-2,5-dimethyl-6,7,9,10-tetrahydro-1H-12,14-(ethanediylidene)dipyrrolo[3,2-i:3′,4′-l][1,4,7]dioxazacyclopentadecine-4,16(5H,15H)-dione]	2.8 % Ctrl	11 % Ctrl	34 % Ctrl	99 % Ctrl	93 % Ctrl	4 % Ctrl	100 % Ctrl	94 % Ctrl	68 % Ctrl	2.1 % Ctrl	0 % Ctrl	0 % Ctrl	8.5 % Ctrl	0.05 % Ctrl	32 % Ctrl	8 % Ctrl	–
Cc1cc2c([nH]1)/C=C1\C(=O)Nc3cc(Cl)c(cc31)OCCO[C@@H](C(=O)NC1CCNCC1)CN(C)C2=O [Ex. 134, [7R,16a(17)Z]-19-chloro-2,5-dimethyl-4,16-dioxo-N-(piperidin-4-yl)-4,5,6,7,9,10,15,16-octahydro-1H-12,14-(ethaneidylidene)dipyrrolo[3,2-i:3′,4′-l][1,4,7]dioxazacyclopentadecine-7-carboxamide]	32 % Ctrl	18 % Ctrl	3.9 % Ctrl	96 % Ctrl	89 % Ctrl	81 % Ctrl	83 % Ctrl	87 % Ctrl	99 % Ctrl	35 % Ctrl	3.2 % Ctrl	6.1 % Ctrl	25 % Ctrl	3.9 % Ctrl	69 % Ctrl	64 % Ctrl	–
CN1CCSCCOc2cc3c(cc2Cl)NC(=O)/C3=C\c2[nH]ccc2C1=O [Ex. 153]	–	–	–	–	–	–	–	–	–	–	–	–	–	–	–	–	% Ctrl, ABL1(Q252H)-nonphosphorylated (kinases [1]; target ABL1(Q252H)-nonphosphorylated): 1.8 % Ctrl; % Ctrl, ABL1(Q252H)-phosphorylated (kinases [1]; target ABL1(Q252H)-phosphorylated): 7.9 % Ctrl; % Ctrl, KIT(V559D, T670I) (kinases [2]; target KIT(V559D, T670I)): 0.3 % Ctrl; % Ctrl, EGFR (kinases [3]; target EGFR): 61 % Ctrl; % Ctrl, EGFR(E746-A750del) (kinases [4]; target EGFR(E746-A750del)): 56 % Ctrl; % Ctrl, RET(V804M) (kinases [5]; target RET(V804M)): 41 % Ctrl; % Ctrl, EGFR(L747-E749del, A750P) (kinases [6]; target EGFR(L747-E749del, A750P)): 85 % Ctrl; % Ctrl, EGFR(L747-S752del, P753S) (kinases [6]; target EGFR(L747-S752del, P753S)): 57 % Ctrl; % Ctrl, EGFR(L747-T751del, Sins) (kinases [6]; target EGFR(L747-T751del, Sins)): 38 % Ctrl; % Ctrl, FLT3(ITD) (kinases [6]; target FLT3(ITD)): 0.5 % Ctrl; % Ctrl, FLT3(ITD, D835V) (kinases [6]; target FLT3(ITD, D835V)): 0.5 % Ctrl; % Ctrl, FLT3(ITD, F691L) (kinases [6]; target FLT3(ITD, F691L)): 0.5 % Ctrl; % Ctrl, ABL1(M351T)-phosphorylated (kinases [7]; target ABL1(M351T)-phosphorylated): 9.5 % Ctrl; % Ctrl, FLT3(D835V) (kinases [8]; target FLT3(D835V)): 0.3 % Ctrl; % Ctrl, KIT(A829P) (kinases [9]; target KIT(A829P)): 43 % Ctrl; % Ctrl, KIT(V559D, V654A) (kinases [10]; target KIT(V559D, V654A)): 13 % Ctrl
